Assays:
[1] = test system: TGR5+/+ and TGR5-/- mice; assay: OGTT in HF-fed TGR5+/+ and TGR5-/- mice before and after treatment; type: in vivo, mouse; details: for body weight after treatment: HF diet, 30 mg/kg/d 4 weeks
Protocol: […]. […] […]; not statistically different). […]; not statistically different).
(§1) Animals were housed and bred according to standardized procedures (Argmann and Auwerx, 2006b). Age-matched male mice were used for all experiments. Genetically engineered mouse models (GEMMs), i.e., TGR5-Tg and TGR5^−/− mice, were generated as described in the Supplemental Data. […]; Research Diets) for at least 8 weeks, as mentioned in the text and figure legends. […] Mouse phenotyping experiments were performed according to EMPRESS protocols (see, for example, Empress (European Mouse Phenotyping Resource of Standardised Screening) website) and were aimed to assess food and water intake, body composition (Argmann et al., 2006a, Curr. Protoc. Mol. Biol. Chapter 29, Unit 29A, 23), energy expenditure (Argmann et al., 2006a, Curr. Protoc. Mol. Biol. Chapter 29, Unit 29A, 23), glucose and lipid homeostasis (Argmann et al., 2006b, Curr. Protoc. Mol. Biol. Chapter 29, Unit 29A, 22); Heikkinen et al., 2007, Curr. Protoc. Mol. Chapter. 29, Unit 29B, 23; Mataki et al., 2007, Mol. Cell. Biol. 27, 8330), and plasma biochemistry (Argmann and Auwerx, 2006a, Curr. Protoc. Mol. Biol. Chapter 29, Unit 29A, 22). Tissues and blood were collected and processed for histopathology, blood chemistry, and gene expression according to standardized procedures (Argmann and Auwerx, 2006a; Feige et al., 2008b; Mark et al., 2007; Watanabe et al., 2006). Hyperinsulinemic euglycemic clamp studies were performed as described (Feige et al., 2008b), with minor modifications including a change in the initial insulin bolus (30 mU/kg) and insulin infusion rate (10 mU/min/kg). Plasma GLP-1 levels were measured by ELISA (Millipore) on blood collected by retro-orbital puncture. […].

[2] = Stability in human liver microsomes; details: liver microsomes
[3] = test system: TGR5+/+ and TGR5-/- mice; assay: Plasma GLP-1 after oral glucose challenge in TGR5+/+ and TGR5-/- mice; type: in vivo, mouse; details: for GLP-1 release after a glucose challenge: TGR5+/+ mice
Protocol: as §1
To further establish a role of TGR5 signaling in the maintenance of glucose homeostasis, we assessed the glucose tolerance of germline TGR5-deficient mice (TGR5^−/−), generated by breeding mice in which the TGR5 allele was floxed with CMV-Cre transgenic mice. […].

[4] = Critical micellar concentration by surface tension; type: physicochemical; details: […] NaCl water solution
Protocol: The critical micellar concentration (CMC) was determined by surface tension (ST) measurements using a maximum bubble-pressure method which give surface tension values […] by potential impurities like static methods are. The tensiometer was a […] Research Corp., Milwaukee, Wis.) equipped with two glass probes of 0.5 and 4.0 mm diameters connected to a source of nitrogen. […] The surface tension values were plotted against the logarithm of the bile salt concentration; the regression lines corresponding to the two parts of the curve (monomeric and micellar phases) were calculated using the method of least squares, and the intersection of the lines was taken as the CMC value. From the ST vs concentration curves the value of the surface tension at the CMC (equilibrium between monomers and multimers species) was also calculated giving information about the detergency power which is related to the size of the micelles with associate surface tension lowering capacity. The CMC was evaluated by surface tension measurements in non equilibrium conditions i.e. in conditions that impurities slightly affect the surface tension results (FIG. 10).

[5] = molecular target: PXR (Homo sapiens, UniProt O75469); assay: PXR ligands competition assay (binding assay)
[6] = molecular target: T1, VDR (Homo sapiens, UniProt P11473); assay: VDR coactivator recruitment assay
T1 sequence (P11473 127-423 limits assumed): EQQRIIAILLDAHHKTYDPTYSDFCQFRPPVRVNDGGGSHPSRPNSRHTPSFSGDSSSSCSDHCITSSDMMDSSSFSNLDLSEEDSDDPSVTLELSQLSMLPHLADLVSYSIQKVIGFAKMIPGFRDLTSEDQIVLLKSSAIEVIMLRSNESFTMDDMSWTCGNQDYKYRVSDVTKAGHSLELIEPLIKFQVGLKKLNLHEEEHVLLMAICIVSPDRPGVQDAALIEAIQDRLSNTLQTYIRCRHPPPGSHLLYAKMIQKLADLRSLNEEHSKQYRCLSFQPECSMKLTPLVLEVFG
Protocol: Lanthascreen assay (Invitrogen) was used for nulear receptor selectivity assay. The kit uses a terbium-labeled anti-GST antibody, a fluorescein-labeled coactivator peptide, and a NR ligand-binding domain that is tagged with glutathione-S-transferase (GST) in a homogenous mix-and-read assay format. […] Following 1 hour incubation in the dark, TR-FRET measurements were made in the Envision. […] The data was analyzed using GraphPad Prism using the sigmoidal curve equation with variable slope to obtain EC50 values.

Sequence of PXR (O75469 whole entry, species assumed): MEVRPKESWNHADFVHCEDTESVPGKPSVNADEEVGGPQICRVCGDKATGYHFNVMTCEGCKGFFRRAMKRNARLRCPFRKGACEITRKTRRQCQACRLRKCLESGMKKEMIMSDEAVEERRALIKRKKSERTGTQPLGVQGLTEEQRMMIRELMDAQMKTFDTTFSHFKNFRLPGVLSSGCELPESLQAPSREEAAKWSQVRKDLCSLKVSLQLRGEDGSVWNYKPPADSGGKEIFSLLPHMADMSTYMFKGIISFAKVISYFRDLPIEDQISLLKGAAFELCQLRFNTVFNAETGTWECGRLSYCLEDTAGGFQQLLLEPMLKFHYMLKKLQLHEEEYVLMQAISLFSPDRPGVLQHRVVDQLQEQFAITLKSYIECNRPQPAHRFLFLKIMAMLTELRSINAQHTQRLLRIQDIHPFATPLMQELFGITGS

## CC[C@H]1[C@@H](O)[C@@H]2[C@H](C[C@H](O)[C@]3(C)[C@@H]([C@H](C)C[C@H](C)C(=O)O)CC[C@@H]23)[C@@]2(C)CC[C@@H](O)C[C@@H]12 [Ih3e, 6α-ethyl-(23S)-methyl-3α,7α,12α trihydroxy-5β-cholan-24-oic acid]
[1]; TGR5+/+ fed a HF diet
  insulin secretion during oral glucose challenge: normalization of insulin secretion
[1]; TGR5+/+ fed a HF diet, 4 weeks 30 mkd
  glucose tolerance: significantly improved glucose tolerance
[1]; TGR5+/+ mice
  body weight after treatment: 43.50 ± 3.47 g
[1]; TGR5-/- mice
  effects on glucose tolerance and insulin secretion: blunted
  body weight after treatment: 52.30 ± 2.72 g
[2]
  half-life: 32.4 h
[3]; DPP4 inhibitor sitagliptin coadministered
  GLP-1 release after a glucose challenge: markedly more pronounced
[3]; preadministration 30 mg/kg oral
  GLP-1 release after a glucose challenge: moderately increased GLP-1 release
[3]; TGR5-/- mice
  effects on plasma GLP-1 levels: blunted
[4]
  CMC […] Na+: 1.4 mM
  STCMC (surface tension at CMC): 50.1 Dyne/cm
[5]
  IC50: 110 µM
[6]
  VDR Activation EC50: No activity

Reference: US8114862B2, “TGR5 modulators and methods of use thereof” (Intercept Pharmaceuticals, Inc., priority 2008, dated 2012)
